Experimental data: patent publication US20260041653A1, “AN HDAC INHIBITOR FOR TREATING CANCER WITH A MODIFIED STK11 ACTIVITY OR EXPRESSION” (Tango Therapeutics, Inc., priority 2022, published 2026)

Experiments:
[1] = tested on: CT26 parental tumor (KRAS G12D); test: Anti-tumor efficacy in CT26 parental (wild-type) colon carcinoma model; assay type: in vivo, mouse
Experimental: (§1) An in vivo anti-tumor efficacy of combination treatment of Anti-PD1 and Compound I in a CT26 mouse model was evaluated. CT26 is a colon carcinoma cell line with an endogenous KRAS G12D mutation. The experiment was performed in the parental/wild type line and in a line engineered with an STK11 knock-out (CT26_STK11KO) resulting in an anti-PD1 resistant model with lower CD8+ T cell infiltration.
In each of the experiments, the animals (8/group) were divided into four groups. Group I was treated with a control antibody Anti-IgG2, group 2 was treated with Compound I 75 mg/kg, group 3 was treated with anti-PD1 antibody, and group 4 was treated with Compound I 75 mg/kg and anti-PD1 antibody. Tumor volume and survival was monitored over the course of treatment. For the CT26_STK11KO model, the tumor volume was plotted by individual animal (FIG. 15A) and by treatment group (FIG. 15B). Survival was plotted by treatment group (FIG. 15C).
For the CT26 parental model, the tumor volume was plotted by treatment group (FIG. 15D) and by individual animal for groups 1 and 4 (FIG. 15E).
as §1, with “anti-CTLA4” for “Anti-PD1”, “anti-CTLA4-resistant model.” for “anti-PD1 resistant model with lower CD8+ T cell infiltration.”
An in vivo anti-tumor efficacy of double combination treatment of Anti-CTLA4 and Compound I in a CT26 syngeneic model was performed. CT26 is a colon carcinoma cell line. The experiment was also performed with an STK11-null CT26 model, this model is CTLA4 resistant.
There were 8 mice per group. Group I was treated with a control antibody Anti-IgG2, group 2 was treated with Compound I 75 mg/kg, group 3 was treated with anti-CTLA4 antibody, and group 4 was treated with Compound I 75 mg/kg and anti-CTLA4 antibody. Tumor volume was monitored over the course of treatment. The tumor volume was plotted by treatment group (FIG. 16A), and the individual animals were plotted for group 1 and group 4 (FIG. 16B), for the parental model. The tumor volume was plotted by treatment group (FIG. 16C), and the individual animals were plotted for group 1 and group 4 (FIG. 16D), for the STK11 knockout model.

[2] = Caverage in mice with STK11-deleted MC38 tumors; assay type: in vivo, mouse; details: doses used in FIG. 12B and 12C
[3] = target: CYP2D6 (Homo sapiens, UniProt P10635); test: Metabolism by recombinant human CYP2D6; assay type: in vitro ADME; details: read-out: terminal half life (T1/2), rh CYP2D6
Experimental: Drug metabolizing enzymes involved in the biotransformation of Compound I were investigated using human liver microsomes (HLM) and recombinant enzymes. Compound I was stable in HLMs (>93% remaining after 240 minutes of incubation with HLM protein concentration at 0.6 mg/ml). CYP selective inhibitor experiments were not performed due to lack of appreciable Compound I turnover.

[4] = tested on: acetyl-histone H2B; test: PK/PD study, acetyl-histone H2B in PBMC by flow cytometry; assay type: in vivo, C57BL/6 mice; details: 300 mg/kg QD, 2 days; 24 hours after last dose; vs vehicle control
Experimental: (§2) In a separate PK/PD study, MC38 tumor-bearing female C57BL/6 mice (12/group) were assigned to treatment groups with similar mean tumor volumes of approximately 430 mm^3 and treated with vehicle (5% N,N-dimethylacetamide [DMA]+30% polyethylene glycol [PEG] 400+65% of 30% 2-hydroxypropyl-beta-cyclodextrin [HP-β-CD] in water) or Compound I at 30, 100, and 300 mg/kg once daily (QD) for 2 days. Plasma samples were collected at 1, 2, 8 and 24 hours after last dose and analyzed for Compound I concentrations. Peripheral blood mononuclear cells (PBMC) and tumor samples were harvested at 2, 8, and 24 hours after last dose. The PBMC samples were processed for determination of mean florescent level of acetyl-histone H2B by flow cytometry. Tumor samples were processed for determination of protein levels of acetyl-histone H3 by Western blot.

[5] = Free fraction in mouse plasma; assay type: in vitro ADME; details: C57BL/6 mouse plasma
[6] = PK/PD study, body weight and clinical signs; assay type: in vivo, C57BL/6 mice; details: 30, 100, 300 mg/kg QD for 2 days
Experimental: as §2

[7] = tested on: A549 cells; test: Nanostring PanCancer IO360 profiling of A549 cells; assay type: cell-based; details: 96 hours; dose that increased H3K9Ac two-fold; vs vorinostat and domatinostat
Experimental: In this example, the gene expression changes between CoreDAC and other HDAC inhibitors was determined by Nanostring profiling.
Cells were harvested and Nanostring profiling using the PanCancer IO360 panel was performed on the three treatment groups (FIGS. 11A-C). The top three ranked gene ontology groups for each compound as determined from the Nanostring data in (FIGS. 11A-C top panel) were determined using the nSolver software (FIGS. 11A-C bottom panel).

[8] = Compound I 75 mg/kg QD alone, second of two values (two experiments, Examples 14 and 15)
[9] = Compound I 75 mg/kg QD, antibodies 10 mg/kg, for Compound I alone the first of two printed values

CYP2D6, sequence (P10635 whole entry): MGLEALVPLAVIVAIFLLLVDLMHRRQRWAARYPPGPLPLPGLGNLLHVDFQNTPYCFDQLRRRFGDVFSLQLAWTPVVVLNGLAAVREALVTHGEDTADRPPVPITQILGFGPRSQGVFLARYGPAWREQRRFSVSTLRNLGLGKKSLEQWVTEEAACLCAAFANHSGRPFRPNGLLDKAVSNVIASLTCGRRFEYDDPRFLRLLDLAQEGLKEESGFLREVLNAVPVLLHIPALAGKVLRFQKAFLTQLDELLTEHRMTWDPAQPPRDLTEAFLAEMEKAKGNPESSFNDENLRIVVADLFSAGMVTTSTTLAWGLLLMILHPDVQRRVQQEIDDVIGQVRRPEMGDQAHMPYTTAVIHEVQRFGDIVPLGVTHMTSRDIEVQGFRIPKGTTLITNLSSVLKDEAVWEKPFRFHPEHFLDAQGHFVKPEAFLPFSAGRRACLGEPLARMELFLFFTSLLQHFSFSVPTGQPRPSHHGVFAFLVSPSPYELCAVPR

C[S@@](=N)(=O)c1ccc(C(=O)Nc2cc(-c3ccc(F)cc3)ccc2N)cc1 [Compound I, (R)—N-(4-amino-4′-fluoro-[1,1′-biphenyl]-3-yl)-4-(S-methylsulfonimidoyl)benzamide]
ORR % [1, 8]: 63/63%
TGI % [1, 8]: 66%
ORR % [1, 9]: 63/63%
TGI % [1, 9]: 84%
Cavg, u [2]: 192 nM
Fold of HDAC1 IC50 (Caverage coverage) [2]: 3.5 fold
half-life [3]: > 1 h
maximal induction of histone acetylation in PBMC [4]: 8 fold
fraction unbound [5]: 0.101
body weight loss and clinical signs [6]: No obvious body weight loss of more than 5% or adverse clinical signs
number of genes regulated [7]: regulates the expression of fewer genes
